Here are results for eleven compounds from ChEMBL document CHEMBL1201862, “PubChem BioAssay data set” (2004).

Test systems include OVCAR-5; COLO 205; HOP-62; UO-31; SK-OV-3; RXF 393; A549; HL-60; SNB-75; UACC-257; K562; NCI-H23; CAKI-1; OVCAR-3; SK-MEL-2; TK-10; SF-268; HCT-116; SK-MEL-28; NCI-H522.
Common to all, as to experiment: DTP human tumour cell line panel, 48 h

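Interpolation was linear, between the two tested concentrations surrounding the appropriate level; five concentrations were tested over 48 hours in 96-well plates. Abbreviation: GI50, concentration required for 50% inhibition of growth.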 The source made the active and inactive calls. No stated cut-off is given here; in the data, active = GI50 up to about 1.1 µM and inactive = higher.

As to `CN(O)C(=O)CCCC(=O)NCC(C)(C)CNC(=O)CCCC(=O)N(C)O`, the GI50 in the assay on OVCAR-5, with COLO 205, with HOP-62, with UO-31, in the assay on SK-OV-3 and with RXF 393 was > 100 µM (inactive) each time. Moreover, the GI50 with A549, in the assay on HL-60, with SNB-75, in the assay on UACC-257, in the assay with K562 and in the assay with NCI-H23 was > 100 µM (inactive) each time. For the same compound, the GI50 in the assay with CAKI-1, in the assay with OVCAR-3, in the assay with SK-MEL-2, in the assay with TK-10 and with SF-268 was > 100 µM (inactive) throughout.
`Cc1cc(O)c(C(c2cccnc2)c2c(O)cc(C)[nH]c2=O)c(=O)[nH]1`: the GI50 in the assay on OVCAR-5, in the assay with COLO 205, in the assay on HOP-62, in the assay with UO-31, in the assay with SK-OV-3 and in the assay with RXF 393 was > 100 µM (inactive) in each case. The GI50 in the assay on A549, in the assay on HL-60, in the assay on HCT-116, in the assay on UACC-257, with K562 and with NCI-H23 was > 100 µM (inactive) each time. The GI50 in the assay with CAKI-1, with OVCAR-3, with SK-MEL-28, in the assay with TK-10, in the assay on SF-268 and in the assay with NCI-H522 was > 100 µM (inactive) in each case.
Regarding `C=CCn1c(=O)ccn(COCCO)c1=O`, the GI50 in the assay on OVCAR-5, in the assay with COLO 205, with HOP-62, with UO-31, with RXF 393 and in the assay with A549 was > 100 µM (inactive) each time. The GI50 with HL-60, in the assay with SNB-75, in the assay on UACC-257, in the assay with K562, in the assay on NCI-H23 and with CAKI-1 was > 100 µM (inactive) in each case. The GI50 in the assay on OVCAR-3, with SK-MEL-28, in the assay on SK-MEL-2, with TK-10, in the assay on SF-268 and in the assay on NCI-H522 was > 100 µM (inactive) each time.
In the case of `O=NN(CCCl)C(=O)N[C@H]1CC[C@H](C(=O)O)CC1`, the GI50 (in general, the concentration that inhibits growth by half) in the assay with OVCAR-5 is > 100 µM (inactive); with COLO 205, > 100 µM (inactive); in the assay with HOP-62, 95.5 µM (inactive); in the assay on UO-31 it was > 100 µM (inactive); in the assay with SK-OV-3 it was > 100 µM (inactive); with RXF 393, > 100 µM (inactive). Moreover, the GI50 in the assay with A549 was > 100 µM (inactive); in the assay with HCT-116, > 100 µM (inactive); in the assay with SNB-75, > 80.2 µM (inactive); in the assay with UACC-257, > 100 µM (inactive); in the assay on K562, > 100 µM (inactive); in the assay with NCI-H23 it was > 100 µM (inactive). In addition, the GI50 with CAKI-1 was > 100 µM (inactive); in the assay with OVCAR-3, > 100 µM (inactive); in the assay on SK-MEL-28 it was > 100 µM (inactive); in the assay with SK-MEL-2 it was > 100 µM (inactive); in the assay on SF-268 it was 29.7 µM (inactive); in the assay with NCI-H522 it was 38.6 µM (inactive).
Consider `C=C1CC(OC)(C(O)C(=O)N[C@H]2OCO[C@H]3C2O[C@H](C[C@@H](COC)OC)C(C)(C)C3OC)O[C@H](C)[C@@H]1C` (stereo not given in full), for which the GI50 with OVCAR-5, in the assay on COLO 205, with HOP-62, in the assay with UO-31, in the assay on RXF 393 and with A549 was < 0.00482 µM (active) throughout. In addition, the GI50 in the assay with HL-60, in the assay with HCT-116, in the assay with SNB-75, with UACC-257, in the assay with K562 and in the assay with NCI-H23 was < 0.00482 µM (active) throughout. Also, the GI50 in the assay on CAKI-1, in the assay with OVCAR-3, in the assay with SK-MEL-28, with SF-268 and in the assay on NCI-H522 was < 0.00482 µM (active) throughout.
As for `CCOP(=Nc1ccc(N(C)C)cc1)(OCC)OCC`, the GI50 with OVCAR-5, in the assay with COLO 205, in the assay with HOP-62, in the assay with UO-31, in the assay on SK-OV-3 and with RXF 393 was > 100 µM (inactive) in each case. For the same compound, the GI50 in the assay with A549, in the assay on HCT-116, with SNB-75, with UACC-257, in the assay with K562 and in the assay on NCI-H23 was > 100 µM (inactive) in each case. The GI50 in the assay on CAKI-1, with OVCAR-3, in the assay with SK-MEL-28, in the assay with SK-MEL-2, in the assay with TK-10 and in the assay with SF-268 was > 100 µM (inactive) throughout. In addition, the GI50 in the assay with NCI-H522 is > 100 µM (inactive).
For `CC[C@@H]1C[C@@H]2CN3CCc4c([nH]c5ccc(OC)cc45)C(COC(=O)c4ccc(OC)c(OC)c4)(C2)C13`, the GI50 in the assay on OVCAR-5 was 22.6 µM (inactive); in the assay with COLO 205, 21.2 µM (inactive); with HOP-62, 22.9 µM (inactive); in the assay with UO-31 it was 16.8 µM (inactive); with RXF 393 it was 14.2 µM (inactive); in the assay with A549, 33 µM (inactive). In addition, the GI50 is 14.5 µM (inactive) with HL-60; 4.34 µM (inactive) in the assay with HCT-116; 24.5 µM (inactive) in the assay on SNB-75; 18.3 µM (inactive) in the assay on UACC-257; 7.91 µM (inactive) in the assay on K562; 10.3 µM (inactive) in the assay with NCI-H23. Also, the GI50 in the assay on CAKI-1 was 19.5 µM (inactive); in the assay with OVCAR-3, 16.1 µM (inactive); with SK-MEL-28, 43.3 µM (inactive); with SK-MEL-2 it was > 10 µM (inactive); in the assay on TK-10 it was 32.2 µM (inactive); with SF-268, 33 µM (inactive).
As for `O=[N+]([O-])C(/C=C(\Cl)[N+](=O)[O-])=C1Nc2ccccc2N1`, the GI50 is 30.5 µM (inactive) in the assay with COLO 205; > 100 µM (inactive) with HOP-62; 42.6 µM (inactive) in the assay on UO-31; 42.4 µM (inactive) with SK-OV-3; 38.1 µM (inactive) with RXF 393; > 100 µM (inactive) in the assay with A549. Besides, the GI50 with HL-60 was 45.8 µM (inactive); in the assay on HCT-116, 50.1 µM (inactive); with SNB-75 it was 17.3 µM (inactive); in the assay with UACC-257, 33.3 µM (inactive); in the assay with K562, 79.6 µM (inactive); in the assay with NCI-H23, > 100 µM (inactive). Also, the GI50 is 22.1 µM (inactive) in the assay with CAKI-1; 90.2 µM (inactive) in the assay on OVCAR-3; 42.3 µM (inactive) in the assay on SK-MEL-28; > 100 µM (inactive) with TK-10; 57.1 µM (inactive) with SF-268; > 100 µM (inactive) in the assay on NCI-H522.
With `COC(=O)C(=O)C(C(C)=O)C(=O)C(=O)Nc1ccc(C)cc1C` (stereo not given), the GI50 in the assay on OVCAR-5, in the assay on COLO 205, in the assay with HOP-62, in the assay on UO-31, with SK-OV-3 and in the assay on RXF 393 was > 100 µM (inactive) each time. For the same compound, the GI50 with A549, in the assay with HL-60, with HCT-116, in the assay on SNB-75, in the assay on UACC-257 and in the assay on K562 was > 100 µM (inactive) in each case. Also, the GI50 in the assay with NCI-H23, in the assay on CAKI-1, in the assay with SK-MEL-28, with SK-MEL-2, with TK-10 and with SF-268 was > 100 µM (inactive) in each case. For the same compound, the GI50 with NCI-H522 was > 100 µM (inactive).
`CCCCCCCCCCCCCCCCCC(=O)OCC(COC(=O)CCCN)OC(=O)CCCN` (stereo not given): the GI50 in the assay on OVCAR-5 was 15.9 µM (inactive); in the assay with COLO 205, 16.5 µM (inactive); in the assay with HOP-62, 17.4 µM (inactive); in the assay with UO-31, 1.96 µM (inactive); in the assay on SK-OV-3, 18.3 µM (inactive); in the assay on RXF 393, 15.1 µM (inactive). Also, the GI50 is 4.1 µM (inactive) in the assay with A549; 54.2 µM (inactive) in the assay on HL-60; 19.5 µM (inactive) in the assay with HCT-116; > 100 µM (inactive) in the assay on SNB-75; 19.6 µM (inactive) in the assay on UACC-257; 35.6 µM (inactive) with K562. In addition, the GI50 with NCI-H23 is 16.4 µM (inactive); in the assay on CAKI-1 it was 18.7 µM (inactive); with OVCAR-3 it was 19.3 µM (inactive); in the assay with SK-MEL-28 it was 19.9 µM (inactive); in the assay with TK-10, 20.8 µM (inactive); in the assay with SF-268, 23.1 µM (inactive). Further, in the assay with NCI-H522, the GI50 was 21 µM (inactive).
Regarding `O=P(CCOc1ccccc1OCCP(=O)(c1ccccc1)c1ccc2c(c1)OCCOCCOCCOCCO2)(c1ccccc1)c1ccc2c(c1)OCCOCCOCCOCCO2` (stereo not given), the GI50 in the assay on OVCAR-5, in the assay on COLO 205, in the assay on HOP-62, with UO-31, in the assay with SK-OV-3 and in the assay with RXF 393 was > 100 µM (inactive) throughout. Also, the GI50 in the assay with A549, in the assay on HL-60, with HCT-116, with SNB-75, in the assay on UACC-257 and in the assay on K562 was > 100 µM (inactive) each time. Moreover, the GI50 in the assay with NCI-H23, in the assay on OVCAR-3, in the assay on SK-MEL-28, with SK-MEL-2, in the assay with TK-10 and in the assay on SF-268 was > 100 µM (inactive) each time. Further, the GI50 in the assay on NCI-H522 is > 100 µM (inactive).
